Reference: US20220305121A1, “N-ARYL SULFONAMIDE DERIVATIVES AS VACCINE ADJUVANT” (The Regents of the University of California, priority 2019, published 2022)
pEC50: −log10 of the molar value. Entries after “also recorded” stand apart in the source; their conditions may differ.

Assays:
NF-κB and ISRE = NF-κB and ISRE reporter assays (primary screens), statements in words for both assays; type: cell-based; settings: for activity in NF-κB and ISRE assays (in words): with LPS or IFN-α as primary stimulus, compared to compound 1
Summary of the method: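 Single 5 μM compound (0.05% DMSO). NF-κB: THP1-Blue cells with 10 μg/mL LPS, 20 h, SEAP by absorbance at 630 nm. ISRE: ISRE-bla THP-1 cells with 100 U/mL IFN-α, 16 h, CCF4-AM 465/535 nm ratio. Both normalized to stimulus alone as 100%, compound 1 plus stimulus as 200%.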

NF-κB = experiment: Measurement of NF-κB activation using THP1-Blue NF-κB cells (SEAP reporter, LPS as primary stimulus); type: cell-based; settings: for activity at 5 µM / NF-κB % Activation: compound 5 μM + LPS, 20 hour incubation, two point normalized: compound 1 + LPS = 200%, LPS = 100%, mean; for pEC50: dose response in the presence of LPS
Summary of the method: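 THP1-Blue NF-κB cells (10^5/well, RPMI + 10% FBS) were co-treated with LPS 10 μg/mL and compound 5 μM (final, […]) for 20 h. Supernatant SEAP was read by QuantiBlue colorimetry at 630 nm. Two-point normalization set LPS alone to 100% and compound 1+LPS to 200%.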

ISRE = experiment: Measurement of ISRE activity in ISRE-bla THP-1 cells (FRET, IFN-α as primary stimulus); type: cell-based; settings: for activity at 5 µM / pEC50: Homo sapiens, THP-1; for activity at 5 µM / ISRE % Activation: compound 5 μM + IFN-α 100 U/mL, 16 hours, two point normalized: compound 1 + IFN-α = 200%, IFN-α = 100%, mean; for activity at 5 µM: read-out: ISRE % Activation; for pEC50: dose response in the presence of IFN-α
Summary of the method: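 Cells at 5×10^4/well in RPMI with 10% dialyzed FBS, treated with compound at 5 μM (0.05% DMSO) plus IFN-α at 100 U/mL (final) for 16 h. CCF4-AM substrate added for 3 h at room temperature. Background-subtracted 465/535 nm emission ratio, 2-point normalized: IFN-α alone 100%, compound 1+IFN-α 200%.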

[1] = test system: C57BL/6 (wild-type, WT) mice; experiment: In vivo adjuvant activity study (ovalbumin + MPLA + compound, OVA-specific IgG by ELISA); settings: coimmunization with MPLA and ovalbumin; for OVA-specific IgG antibody titers: intramuscular, days 0 and 21, compared to MPLA alone
THP-1 cells = experiment: Cell viability assay (MTT); type: cell-based; settings: compound 5 μM, 18 hours incubation; normalized to DMSO as 100%; mean
Summary of the method: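 Cells at 10^5/well in RPMI with 10% FBS were exposed to compound at 5 μM final (0.05% DMSO) for 18 h. MTT (0.5 mg/mL) then added for 4-6 h, cells lysed overnight in SDS/HCl, absorbance read at 570 nm against 650 nm reference.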

[2] = Stability of compound 48 in DMSO stock and in assay media; type: physicochemical
Description: However, before proceeding with syntheses of additional acylated analogs, its stability in stock solutions was evaluated since during the assay this compound could behave as a prodrug by undergoing deacetylation to release active compound 1. […] Thus, syntheses of additional acylated analogs were not pursued.

CCOc1ccc(S(=O)(=O)Nc2cc(OC)c(Cl)cc2OC)cc1 [Compound 1, N-(4-chloro-2,5-dimethoxyphenyl)-4-ethoxybenzenesulfonamide]
NF-κB or ISRE activity when tested alone (NF-κB and ISRE; tested alone, without LPS or IFN-α): little if any | activity in NF-κB and ISRE assays (in words) (NF-κB and ISRE): enhanced their activation; also recorded: retained activity; also recorded: sustained NF-κB and ISRE activation | activity at 5 µM (NF-κB): 200% | activity at 5 µM (ISRE): 200% | pEC50 (ISRE): 6.18 | systemic toxicity as indicated by behavior change or weight loss [1]: without demonstrable systemic toxicity | OVA-specific IgG antibody titers [1]: statistically significant increases; also recorded: significant enhancement of antibody titers | MTT % Viability (THP-1 cells): 73.5%

CCOc1ccc(S(=O)(=O)N(C)c2cc(OC)c(Cl)cc2OC)cc1 [Compound 33, N-(4-chloro-2,5-dimethoxyphenyl)-4-ethoxy-N-methylbenzenesulfonamide]
activity in NF-κB and ISRE assays (in words) (NF-κB and ISRE): equipotent as compound 1 | activity at 5 µM (NF-κB): 235% | pEC50 (NF-κB): 6.16 | activity at 5 µM (ISRE): 215% | pEC50 (ISRE): 6.08 | systemic toxicity as indicated by behavior change or weight loss [1]: without demonstrable systemic toxicity | OVA-specific IgG antibody titers [1]: statistically significant increases; also recorded: significant enhancement of antibody titers | MTT % Viability (THP-1 cells): 74.5%

CCOc1ccc(S(=O)(=O)N(C(C)=O)c2cc(OC)c(Cl)cc2OC)cc1 [Compound 48, N-(4-chloro-2,5-dimethoxyphenyl)-N-((4-ethoxyphenyl)sulfonyl)acetamide]
activity in NF-κB and ISRE assays (in words) (NF-κB and ISRE): active | incubation with assay media ([2]; assay media, data not shown): release of compound 1 | stability of stock in DMSO ([2]; stock in DMSO): stable | MTT % Viability (THP-1 cells): 72.0%

CCOc1ccc(S(=O)(=O)N(CCCO)c2cc(OC)c(Cl)cc2OC)cc1 [Compound 51, N-(4-chloro-2,5-dimethoxyphenyl)-4-ethoxy-N-(3-hydroxypropyl) benzenesulfonamide]
activity in NF-κB and ISRE assays (in words) (NF-κB and ISRE): retained activity in both the assays | NF-κB % Activation (NF-κB): 219% | ISRE % Activation (ISRE): 178% | MTT % Viability (THP-1 cells): 68.5%

CCOc1ccc(S(=O)(=O)N(CCCNC(=O)OC(C)(C)C)c2cc(OC)c(Cl)cc2OC)cc1 [Compound 52, tert-Butyl (3-((N-(4-Chloro-2,5-dimethoxyphenyl)-4-ethoxyphenyl)sulfonamido)propyl)carbamate]
activity in NF-κB and ISRE assays (in words) (NF-κB and ISRE): reduction in activity | NF-κB % Activation (NF-κB): 134% | ISRE % Activation (ISRE): 140% | MTT % Viability (THP-1 cells): 75.6%

CCNC(=O)CCCN(c1cc(OC)c(Cl)cc1OC)S(=O)(=O)c1ccc(OCC)cc1 [Compound 54, 4-((N-(4-chloro-2,5-dimethoxyphenyl)-4-ethoxyphenyl)sulfonamido)-N-ethylbutanamide]
activity in NF-κB and ISRE assays (in words) (NF-κB and ISRE): retained activity | NF-κB % Activation (NF-κB): 206% | NF-κB activity (in words) (NF-κB; with LPS): retaining the NF-κB activity | ISRE % Activation (ISRE): 137% | ISRE activity (in words) (ISRE; with IFN-α): reduction in ISRE activity | MTT % Viability (THP-1 cells): 78.2%

CCOc1ccc(S(=O)(=O)N(CCCN)c2cc(OC)c(Cl)cc2OC)cc1.Cl [Compound 55, N-(3-aminopropyl)-N-(4-chloro-2,5-dimethoxyphenyl)-4-ethoxybenzenesulfonamide hydrochloride]
activity in NF-κB and ISRE assays (in words) (NF-κB and ISRE; hydrochloride): recovered; also recorded: less potent than compound 1; also recorded: retained activity even though slightly attenuated | activity at 5 µM (NF-κB): 189% | pEC50 (NF-κB): 5.48 | activity at 5 µM (ISRE): 182% | pEC50 (ISRE): 5.52 | MTT % Viability (THP-1 cells): 71.0%

CCOc1ccc(S(=O)(=O)N(CCCNC(=O)CCCCCNC(=O)c2ccc3c(c2)C(=O)OC32c3ccc(O)cc3Oc3cc(O)ccc32)c2cc(OC)c(Cl)cc2OC)cc1 [Compound 56, N-(6-((3-((N-(4-chloro-2,5-dimethoxyphenyl)-4-ethoxyphenyl)sulfonamido)propyl)amino)-6-oxohexyl)-3′,6′-dihydroxy-3-oxo-3H-spiro[isobenzofuran-1,9′-xanthene]-5-carboxamide]
activity in NF-κB and ISRE assays (in words) (NF-κB and ISRE): completely inactive | NF-κB % Activation (NF-κB): 100% | ISRE % Activation (ISRE): 96% | MTT % Viability (THP-1 cells): 98.1%

CCOc1ccc(S(=O)(=O)N(CCCNC(=O)CCCC[C@H]2SC[C@H]3NC(=O)N[C@H]32)c2cc(OC)c(Cl)cc2OC)cc1 [Compound 58, N-(3-((N-(4-chloro-2,5-dimethoxyphenyl)-4-ethoxyphenyl)sulfonamido)propyl)-5-((3aR,4R,6aS)-2-oxohexahydro-1H-thieno[3,4-d]imidazol-4-yl)pentanamide]
activity in NF-κB and ISRE assays (in words) (NF-κB and ISRE): equipotent to compound 1 | NF-κB % Activation (NF-κB): 195% | ISRE % Activation (ISRE): 175% | MTT % Viability (THP-1 cells): 69.6%

C#CCN(c1cc(OC)c(N=[N+]=[N-])cc1OC)S(=O)(=O)c1ccc(OCC)cc1 [Compound 62, N-(4-azido-2,5-dimethoxyphenyl)-4-ethoxy-N-(prop-2-yn-1-yl) benzenesulfonamide]
activity in NF-κB and ISRE assays (in words) (NF-κB and ISRE): very potent | NF-κB % Activation (NF-κB): 217% | ISRE % Activation (ISRE): 182% | MTT % Viability (THP-1 cells): 73.4%

CCOc1ccc(S(=O)(=O)N(CCCNC(=O)CCCC[C@H]2SC[C@H]3NC(=O)N[C@H]32)c2cc(OC)c(N=[N+]=[N-])cc2OC)cc1 [Compound 64, N-(3-((N-(4-azido-2,5-dimethoxyphenyl)-4-ethoxyphenyl)sulfonamido)propyl)-5-((3aR,4R,6aS)-2-oxohexahydro-1H-thieno[3,4-d]imidazol-4-yl) pentanamide]
activity in NF-κB and ISRE assays (in words) (NF-κB and ISRE): relatively weak activity | NF-κB % Activation (NF-κB): 162% | ISRE % Activation (ISRE): 140% | MTT % Viability (THP-1 cells): 73.8%

N-(9-(2-carboxy-44(34(N-(4-chloro-2,5-dimethoxyphenyl)-4-ethoxyphenyl)sulfonamido)propyl)carbamoyl)phenyl)-6-(diethylamino)-3H-xanthen-3-ylidene)-N-ethylethanaminium [Compound 57]
activity in NF-κB and ISRE assays (in words) (NF-κB and ISRE): reduced activity compared to compound 1 | NF-κB % Activation (NF-κB): 111% | ISRE % Activation (ISRE): 123% | MTT % Viability (THP-1 cells): 76.9%
